Results reported in patent US5795861A, “Methods for regulating gastrointestinal motility” (Amylin Pharmaceuticals Inc., priority 1995, dated 1998).

Tests used:
[1] = plasma AC-0137 levels after IV bolus or infusion (clinical study); assay type: in vivo, human; conditions: after IV bolus injection
Excerpt: Subjects in each dose group underwent a two period crossover to examine intravenous (IV) bolus versus IV infusion of drug. Each period consisted of a three-day confinement to the study unit. On each occasion, the initial day of confinement was allowed for acclimatization to the study unit. The second and third days constituted an imbedded crossover of placebo versus active medication. […] An imbedded cross-over design for the administration of drug and placebo on Days 2 and 3 of this admission was employed in a manner similar to that used during the first admission. The six subjects assigned to the placebo group received placebo on each of the study days.
On study days, intravenous catheters were inserted at least 30 minutes prior to the start of the study. 15 minutes before dosing, the subjects took their usual insulin dose via subcutaneous injection. […] The infusion rate was designed to administer the assigned amount of drug over the two hour period. Thirty minutes later, the subjects ingested their normal breakfasts.

[2] = solubility and stability compared to human amylin; assay type: physicochemical
[3] = tested on: Mongrel dogs; assay: oral glucose tolerance test in dogs during amylin ± AC-0253 infusion; assay type: in vivo
Description: Mongrel dogs (9 males, 12-17 kg wt. range) were used for this study. All animals were fasted overnight prior to each study. Each animal served as its own control for all protocols. Animals were equilibrated for 30-60 minutes prior to the start of each protocol.
25% glucose (1 gm/kg) was administered by mouth at t=0 minutes. […] Samples for insulin, glucose and lactate were obtained at 15 minute intervals from t=-45 to t=180 minutes.

[4] = tested on: non-diabetic Harlan Sprague Dawley rats; assay: gastric emptying of Phenol Red methylcellulose gel, normal rats; assay type: in vivo, rat; conditions: for ED50, suppression of gastric emptying: normal rats fasted 20 hours, s.c. 5 min before gavage
Excerpt: (§1) Twenty minutes after gavage, rats were anesthetized using 5% halothane, the stomach exposed and clamped at the pyloric and lower esophageal sphincters using artery forceps, removed and opened into an alkaline solution which was made up to a fixed volume. Stomach content was derived from the intensity of the phenol red in the alkaline solution, measured by absorbance at a wavelength of 560 nm. In most experiments, the stomach was clear. In other experiments, particulate gastric contents were centrifuged to clear the solution for absorbance measurements. Where the diluted gastric contents remained turbid, the spectroscopic absorbance due to Phenol Red was derived as the difference between that present in alkaline vs acidified diluent. In separate experiments on 7 rats, the stomach and small intestine were both excised and opened into an alkaline solution. The quantity of phenol red that could be recovered from the upper gastrointestinal tract within 20 minutes of gavage was 89±4%. To account for a maximal dye recovery of less than 100%, stomach contents remaining after 20 min were expressed as a fraction of the gastric contents recovered from control rats sacrificed immediately after gavage in the same experiment.
Since ED50 is log-normally distributed, it is expressed i standard error of the logarithm. Pairwise comparisons were performed using one-way analysis of variance and the Student-Newman-Keuls multiple comparisons test (Instat v2.0, GraphPad Software, San Diego) using P<0.05 as the level of significance.

[5] = tested on: diabetic BB rats; assay: gastric emptying of Phenol Red methylcellulose gel, diabetic rats; assay type: in vivo, rat; conditions: for ED50 for suppression of gastric emptying: diabetic rats fasted 6 hours, s.c. 5 min before gavage
Description: When BB rats were confirmed as being diabetic by glycosuria on at least 2 days, they were treated with daily s.c. injections of ultralente recombinant human insulin (Humulin-U, Eli Lilly, Ind.). Insulin therapy was aimed at maintaining glucose but minimizing ketones in the urine, in order to avoid hypoglycemic deaths. In fact, glycosuria was present in 88% of measurements and ketonuria in 52%. The average duration of diabetes was 53±5 days, and daily insulin requirements were 4.7±0.3 units. All animals were housed at 22.7±0.8 C in a 12:12 hour light:dark cycle (experiments being performed during the light cycle) and were fed and watered ad libitum (Diet LM-485, Teklad, Madison, Wis.).
The determination of gastric emptying by the method described below has usually been performed after a fast of ~20 hours to ensure that the stomach contained no chyme that would interfere with spectrophotometric absorbance measurements. However, diabetic rats treated with Ultralente insulin could not be fasted for 20 hours. […] Such animals were therefore. fasted for only 6 hours before measurement of gastric emptying. Non-diabetic rats were deprived of food for either 6 or 20 hours prior to experimentation. We have noted that even non-diabetic BB rats have elevated glycated hemoglobin concentrations, possibly indicating subclinical insulitis. Both non-diabetic Harlan Sprague Dawley rats and non-diabetic BB rats animals were therefore used in comparisons with diabetic rats. Thus there were 5 treatment groups:
as §1, with “experiment. […]” for “experiment.”

[6] = plasma amylin concentration after subcutaneous rat amylin (immuno-enzymometric assay); assay type: in vivo; conditions: sc
Description: The plasma from 250 μL samples collected at 10 min intervals was separated and frozen at -20° C. for analysis by a 2-site immuno-enzymometric assay developed in-house.
To perform the immunoassay, black microtiter plates (Dynatech, Chantilly, Va.) were coated with the antibody F024-4.4 [Phelps J L, Blase E, Koda J E, unpublished] by overnight incubation at 4° C. with 20 ug antibody per mL in 50 mM carbonate at pH 9.6. Plates were washed with 0.05M Tris/0.15M sodium chloride/0.02% sodium azide/0.1% Tween 20 (TBS/Tween), and blocked with 1.0% nonfat dry milk powder in the same carbonate buffer for one hour at room temperature. Samples were thawed on ice, and diluted in 4% BSA/200mg/dl bovine cholesterol supertrate (Miles Pentex reagents, Miles Laboratories, Kankakee Ill.) if necessary. Samples or standards were added to the coated and blocked plates and incubated for one hour at room temperature. After washing, the F025-27 detection antibody conjugated to alkaline phosphatase was added. Antibody-enzyme coupling was performed using the maleimide alkaline phosphatase conjugation kit from Pierce Immunochemical Co (Rockford Ill.). The conjugate was incubated for three hours at room temperature, after which plates were washed thoroughly with Tris buffered saline. Bound enzyme was detected by incubation of the plates with the fluorescent substrate 4-methylumbelliferyl phosphate at 50 ug/ml in 1M diethanolamine/0.5 mM MgCl, pH 9.8 for 40 minutes at room temperature. The fluorescent signal was measured with a Dynatech Microfluor plate reader, and data analyzed on Multicalc software (Wallac, Gaithersburg Md.). […] When performed in this manner, the assay has a minimum detectable concentration of 2 pM.

[7] = tested on: anesthetized rats; assay: glucose bolus into stomach or duodenum during amylin infusion; assay type: in vivo; conditions: rat amylin 0.35 nm/kg/min infusion
Excerpt: (§2) After one hour of amylin infusion, a bolus of glucose (lg/kg) was infused either into the stomach or the duodenum through a tube inserted through the esophagus. Because-the studies involved anesthetized rather than conscious rats, they are not considered in analyzing gastric motility, e.g., rate of emptying of stomach contents into the duodenum. However, the studies indicate that absorption of glucose from the duodenum into the blood was not delayed by amylin. […] In anesthetized rats, a segment of small bowel, still connected to the animal via its blood supply, was exteriorized and cannulae inserted so that the small bowel could be perfused with glucosed solutions of controlled composition. The animals were cannulated also via an artery (for blood sampling) and via a vein (for infusion of amylin, insulin and glucose). The lumen was perfused with a tritium-labelled glucose solution. The passage of glucose from the lumen of the gut into the rat was measured by the appearance of the tritium label in the plasma. The supposition that such appearance of tritium in the plasma was indeed measuring glucose uptake from the gut was tested by administration of the glucose transport blocker, phloridzin. […]

[8] = tested on: anesthetized rats; assay: perfused exteriorized small bowel, passage of tritium-labelled glucose into plasma; assay type: in vivo, rat; conditions: plasma glucose clamped
Excerpt: as §2

[9] = tested on: intact rats; conditions: given subcutaneously, no disturbance of blood pressure
[10] = tested on: rats, rabbits, humans with Paget's disease; conditions: cited from earlier work
[11] = tested on: motility of the gastro-intestinal tract; conditions: 0.2 to 2 mgs intravenously; cited from earlier work

In the case of `CC[C@H](C)[C@H](NC(=O)[C@@H]1CCCN1C(=O)CNC(=O)[C@H](Cc1ccccc1)NC(=O)[C@H](CC(N)=O)NC(=O)[C@H](CC(N)=O)NC(=O)[C@H](CO)NC(=O)[C@H](CO)NC(=O)[C@H](Cc1c[nH]cn1)NC(=O)[C@@H](NC(=O)[C@H](CC(C)C)NC(=O)[C@H](Cc1ccccc1)NC(=O)[C@H](CC(N)=O)NC(=O)[C@H](C)NC(=O)[C@H](CC(C)C)NC(=O)[C@H](CCCNC(=N)N)NC(=O)[C@H](CCC(N)=O)NC(=O)[C@@H](NC(=O)[C@H](C)NC(=O)[C@@H]1CSSC[C@H](NC(=O)[C@@H](N)CCCCN)C(=O)N[C@@H](CC(N)=O)C(=O)N[C@@H]([C@@H](C)O)C(=O)N[C@@H](C)C(=O)N[C@@H]([C@@H](C)O)C(=O)N1)[C@@H](C)O)C(C)C)C(=O)N[C@@H](CC(C)C)C(=O)N1CCC[C@H]1C(=O)N1CCC[C@H]1C(=O)N[C@H](C(=O)N[C@@H](CC(N)=O)C(=O)N[C@H](C(=O)NCC(=O)N[C@@H](CO)C(=O)N[C@@H](CC(N)=O)C(=O)N[C@H](C(=O)N[C@@H](Cc1ccc(O)cc1)C(N)=O)[C@@H](C)O)C(C)C)[C@@H](C)O` [AC-0137, ^25,28,29 Pro-h-amylin], the “disappearance of drug from the plasma compartment” value [1] is reported as “apparent first-order kinetics” and the “solubility and stability characteristics” value [2] is reported as “more desirable solubility and stability characteristics”.
In the case of `CC(C)C[C@H](NC(=O)[C@H](CC(N)=O)NC(=O)[C@H](CC(N)=O)NC(=O)[C@H](CO)NC(=O)[C@H](CO)NC(=O)[C@H](CCCNC(=N)N)NC(=O)[C@@H](NC(=O)[C@H](CC(C)C)NC(=O)[C@H](Cc1ccccc1)NC(=O)[C@H](CC(N)=O)NC(=O)[C@H](C)NC(=O)[C@H](CC(C)C)NC(=O)[C@H](CCCNC(=N)N)NC(=O)[C@H](CCC(N)=O)NC(=O)[C@@H](NC(=O)[C@H](C)NC(=O)[C@@H]1CSSC[C@H](NC(=O)[C@@H](N)CCCCN)C(=O)N[C@@H](CC(N)=O)C(=O)N[C@@H]([C@@H](C)O)C(=O)N[C@@H](C)C(=O)N[C@@H]([C@@H](C)O)C(=O)N1)[C@@H](C)O)C(C)C)C(=O)NCC(=O)N1CCC[C@H]1C(=O)N[C@H](C(=O)N[C@@H](CC(C)C)C(=O)N1CCC[C@H]1C(=O)N1CCC[C@H]1C(=O)N[C@H](C(=O)N[C@@H](CC(N)=O)C(=O)N[C@H](C(=O)NCC(=O)N[C@@H](CO)C(=O)N[C@@H](CC(N)=O)C(=O)N[C@H](C(=O)N[C@@H](Cc1ccc(O)cc1)C(N)=O)[C@@H](C)O)C(C)C)[C@@H](C)O)C(C)C` [amylin], the “rate of rise and peak of plasma glucose after oral glucose load” value ([3]; amylin infusion 50, 100 and 300 pmol/kg/min, 25% glucose 1 gm/kg by mouth) is reported as “reduced both the rate of rise in plasma glucose as well as the peak plasma glucose”, the “effects on plasma lactate” value ([3]; oral glucose load) is reported as “unremarkable” and the “ED50 of inhibition of gastric emptying (summary statement)” value ([4]; normal rats) is reported as ~ 1 μg. For the same molecule, the “ED50, suppression of gastric emptying” value [4] was 0.60 nmole amylin/kg body weight, the “ED50, suppression of gastric emptying” value ([4]; ±0.19 log units) was 0.43 µg and the “dose that would restore gastric emptying to the rate of normal rats not administered amylin” value ([5]; diabetic rat, estimated from fitted curves of FIG. 14) was ~ 2 μg. The “ED50 of inhibition of gastric emptying (summary statement)” value ([5]; diabetic rats) was ~ 1 μg, the “ED50 for suppression of gastric emptying” value [5] was 2.3 nmol/kg and the “ED50 for suppression of gastric emptying” value ([5]; ±0.18 log units) was 2.2 µg. The level at time molar at 10 min ([6]; 1 ug, 1 μg s.c.) was 0.066 ± 0.01 nM, the level at time molar at 10 min ([6]; 10 ug, 10 μg s.c. bolus) was 0.347 ± 0.043 nM and the level at time molar at 20 min ([6]; 10 ug, 10 μg s.c. bolus, 20 min) was 0.301 ± 0.057 nM. For the same molecule, the “absorption of glucose from the duodenum into the blood” value [7] was “not delayed”, the “passage of tritium-labelled glucose from the gut lumen into the plasma” value [8] was “had no effect” and the plasma renin activity [9] was “markedly increases”. For the same molecule, the “lowering of plasma calcium” value [10] was “up to 20%”.
For “glucagon: polypeptide hormone produced by the alpha cells of the pancreatic islets; administered as glucagon hydrochloride”, the onset of effect [11] is given as “within one minute”.
